This note sets out measurements from patent publication US11214803B2, “Modulators of YAP1 expression” (Ionis Pharmaceuticals, Inc., priority 2019, dated 2022).

For data set [1] the following is noted: rat, in vivo, sc, 50 mg/kg.
Experimental: Male Sprague-Dawley rats were maintained on a 12-hour light/dark cycle and fed ad libitum with Purina normal rat chow. Groups of 4 Sprague-Dawley rats each were weekly injected subcutaneously with 50 mg/kg of Ionis oligonucleotide for 6 weeks (total 7 doses). Forty-eight hours after the last dose, the rats were euthanized; and organs, urine and plasma were harvested for further analysis.
To evaluate the effect of Ionis oligonucleotides on kidney function, urinary levels of total protein and creatinine were measured using an automated clinical chemistry analyzer (Hitachi Olympus AU400c, Melville, N.Y.).
A short description of data set [2]: Cynomolgus monkey tolerability, kidney and liver function markers (Example 34). Conditions: cynomolgus monkeys, 35 mg/kg subcutaneously, day 44.
For data set [3], the system named is CAL33 xenograft tumor. The data set can be described thus: Tumor volume and tumor weight in CAL33 xenograft tumor model (Example 29). Type of data set: in vivo, human. Conditions: 50 mg/kg twice weekly for two weeks; for Average Tumor Volume: CAL33 xenografts. The protocol: A xenograft tumor model was used to evaluate activity of modified oligonucleotides targeted to human Yap1. One million CAL33 cells in 30% matrigel were implanted subcutaneously into the flanks of female CrTac:NCr-Foxnlnu (Taconic) mice. When tumors reached an average volume of 100 mm^3, approximately two weeks post-implantation, groups of eight mice were administered at 50 mg/kg twice weekly with modified oligonucleotides for two weeks. ION 792169 was administered as a control.
Tumor volume was measured at the indicated days in the table below. Tumor weight was determined at end of study. Mice were sacrificed when tumors from PBS-treated mice reached 2,000 mm3.

In the case of “1197270 (TTAAAGTGTATGTCAG; cEt gapmer with 2'-OMe nucleoside, phosphorothioate, further chemistry not given here) [compound 1197270]”, the “URINE P/C ratio (total protein to creatinine ratio)” value (shortened to “URINE P/C ratio”) in data set [1] was 14. In data set [2], this substance yielded an ALB of 3.7 g/dL, an ALP of 1215 IU/L, an ALT of 84 IU/L and an AST of 78 IU/L. In data set [2], this substance registered a BUN of 27 mg/dL, a CREA of 0.9 mg/dL, a GGT of 75 IU/L and a GLO of 3.1 g/dL. In data set [2], this substance returned a GLU of 115 mg/dL, an HDL of 102 mg/dL, an LDL of 48 mg/dL and a TBIL of 0.2 mg/dL. In data set [2], this substance returned a TG of 31 mg/dL and a TP of 6.8 g/dL.
Regarding “1198872 (TGTATGTCAGAAGAGT; chemically modified gapmer, further chemistry not given here) [compound 1198872]”, the “URINE P/C ratio” value in data set [1] was 8. In data set [2], this substance displayed an ALB of 4.0 g/dL, an ALP of 1098 IU/L, an ALT of 48 IU/L and an AST of 94 IU/L. In data set [2], the BUN came to 27 mg/dL, the CREA was determined as 0.9 mg/dL, the GGT was found to be 79 IU/L and the GLO is recorded as 3.1 g/dL. In data set [2], this substance returned a GLU of 80 mg/dL, an HDL of 114 mg/dL, an LDL of 60 mg/dL and a TBIL of 0.3 mg/dL. Also, in data set [2], the TG is recorded as 19 mg/dL and the TP is given as 7.1 g/dL.
Turning to “1198728 (TATTAGAGTATGTGGC; modified gapmer, further chemistry not given here) [compound 1198728]”, the “Average Tumor weight” value in data set [3] (CAL33 xenograft mice, end of study) is reported as 0.88 g. Also, the “Average Tumor Volume” value in data set [3] (day 10 post-implantation) is 113 mm^3. In data set [3] (day 13 post-implantation), the “Average Tumor Volume” value is on record as 253 mm^3. The “Average Tumor Volume” value in data set [3] (day 17 post-implantation) turned out to be 423 mm^3. Further, in data set [3] (day 21 post-implantation), the “Average Tumor Volume” value came to 621 mm^3. Also, the “Average Tumor Volume” value in data set [3] (day 24 post-implantation) is reported as 835 mm^3. Further, the “Average Tumor Volume” value in data set [3] (day 27 post-implantation) turned out to be 988 mm^3. Moreover, the “Average Tumor Volume” value in data set [3] (day 31 post-implantation) is listed as 1123 mm^3. For the same substance, the “Average Tumor Volume” value in data set [3] (day 34 post-implantation) worked out at 1233 mm^3. Further, in data set [3] (day 38 post-implantation), the “Average Tumor Volume” value was found to be 1239 mm^3. Also, the “Average Tumor Volume” value in data set [3] (day 40 post-implantation) worked out at 1277 mm^3. Moreover, the “Average Tumor Volume” value in data set [3] (day 44 post-implantation) came to 1277 mm^3. Also, the “URINE P/C ratio” value in data set [1] worked out at 7. In data set [2], the ALB stood at 4.1 g/dL, the ALP worked out at 1165 IU/L, the ALT was determined as 58 IU/L and the AST is given as 92 IU/L. In data set [2], this substance registered a BUN of 26 mg/dL, a CREA of 0.9 mg/dL, a GGT of 59 IU/L and a GLO of 3.2 g/dL. In data set [2], this substance showed a GLU of 95 mg/dL, an HDL of 95 mg/dL, an LDL of 57 mg/dL and a TBIL of 0.3 mg/dL. Further, in data set [2], the TG amounted to 24 mg/dL and the TP was 7.3 g/dL.
Take “1198605 (GTAATATTGCAATCTG; modified gapmer, further chemistry not given here) [compound 1198605]”: the “URINE P/C ratio” value in data set [1] was 28. In data set [2], this substance yielded an ALB of 4.0 g/dL, an ALP of 1445 IU/L, an ALT of 40 IU/L and an AST of 58 IU/L. In data set [2], this substance returned a BUN of 22 mg/dL, a CREA of 0.8 mg/dL, a GGT of 85 IU/L and a GLO of 2.7 g/dL. For the same substance, in data set [2], the GLU is listed as 69 mg/dL, the HDL is 115 mg/dL, the LDL amounted to 57 mg/dL and the TBIL was 0.2 mg/dL. Besides, in data set [2], the TG was found to be 25 mg/dL and the TP turned out to be 6.7 g/dL.
“1198623 (CTAAGTAAGGTTTCCC; modified gapmer, further chemistry not given here) [compound 1198623]”: the “URINE P/C ratio” value in data set [1] is on record as 5. Also, in data set [2], the ALB turned out to be 4.2 g/dL, the ALP is 916 IU/L, the ALT came to 50 IU/L and the AST turned out to be 47 IU/L. In data set [2], this substance had a BUN of 26 mg/dL, a CREA of 0.8 mg/dL, a GGT of 59 IU/L and a GLO of 3.0 g/dL. In data set [2], this substance returned a GLU of 70 mg/dL, an HDL of 87 mg/dL, an LDL of 50 mg/dL and a TBIL of 0.2 mg/dL. Moreover, in data set [2], the TG is listed as 34 mg/dL and the TP was determined as 7.2 g/dL.
With “1198831 (CACTTTTACATTAGGA; chemically modified gapmer, further chemistry not given here) [compound 1198831]”, the “URINE P/C ratio” value in data set [1] amounted to 17. In data set [2], this substance showed an ALB of 3.9 g/dL, an ALP of 1096 IU/L, an ALT of 48 IU/L and an AST of 63 IU/L. Moreover, in data set [2], the BUN amounted to 26 mg/dL, the CREA stood at 0.7 mg/dL, the GGT worked out at 65 IU/L and the GLO came out at 2.8 g/dL. In data set [2], this substance had a GLU of 73 mg/dL, an HDL of 108 mg/dL, an LDL of 63 mg/dL and a TBIL of 0.3 mg/dL. In data set [2], this substance yielded a TG of 22 mg/dL and a TP of 6.7 g/dL.
